According to patent US20030104507A1, “Method for detection of ATP” (priority 2001, published 2003):

Legend:
LucPpe2m146 = assay: Duration of luminescence (signal stability) and effects of media and sera, DTAB, ± pyrophosphate; type: biochemical, Photuris pennsylvanica
Protocol: In some embodiments, the compositions of the invention were added to intact cells to lyse them, and then ATP detected. In other embodiments, conditioned culture media were themselves assayed for ATP. However, the various components of media, such as buffers, sugars, amino acids, pH indicators, salts, etc., as well as the various factors found in serum (equine, bovine, etc.) may inhibit luciferase activity.
The luciferase-luciferin reaction was initiated by combining 100 μl of the reagent composition composition with 100 μl cell media with serum, varying final concentrations of DTAB (as indicated below in Table Q) and 1.0 μM ATP was added to each reaction plus or minus 10 μM sodium pyrophosphate in wells of a 96-well microtiter luminometer plate; each experimental condition was prepared in triplicate. At various times after initiating the reaction, rlu values were recorded using an Orion microplate luminometer (Berthold Detection Systems; Pforzheim, Germany).

[1] = Precipitation of detergent in reagent composition samples; type: physicochemical

For `CCCCCCCCCCCC[N+](C)(C)C.[Br-]` [DTAB, dodecyltrimethylammonium bromide], the “Average Relative Light Units” value (LucPpe2m146; 0.50% DTAB, DMEM + 10% FBS + ATP, 0 min) was 204771 relative light units, the “Average Relative Light Units” value (LucPpe2m146; 0.50% DTAB, DMEM + 10% FBS + ATP, 10 min) was 223493 relative light units and the “Average Relative Light Units” value (LucPpe2m146; 0.50% DTAB, DMEM + 10% FBS + ATP, 30 min) was 187757 relative light units. For the same compound, the “Average Relative Light Units” value (LucPpe2m146; 0.50% DTAB, DMEM + 10% FBS + ATP, 65 min) was 146766 relative light units, the “Average Relative Light Units” value (LucPpe2m146; 0.50% DTAB, DMEM + 10% FBS + ATP, 120 min) was 104150 relative light units and the “Average Relative Light Units” value (LucPpe2m146; 0.50% DTAB, DMEM + 10% FBS + ATP, 180 min) was 72609 relative light units. The “Average Relative Light Units” value (LucPpe2m146; 0.50% DTAB, DMEM + 10% FBS + ATP, 325 min) was 32307 relative light units, the “Average Relative Light Units” value (LucPpe2m146; 0.50% DTAB, F12/DME + 10% FBS + ATP, 0 min) was 13467 relative light units and the “Average Relative Light Units” value (LucPpe2m146; 0.50% DTAB, F12/DME + 10% FBS + ATP, 10 min) was 13311 relative light units. For the same compound, the “Average Relative Light Units” value (LucPpe2m146; 0.50% DTAB, F12/DME + 10% FBS + ATP, 30 min) was 11348 relative light units, the “Average Relative Light Units” value (LucPpe2m146; 0.50% DTAB, F12/DME + 10% FBS + ATP, 65 min) was 9953 relative light units and the “Average Relative Light Units” value (LucPpe2m146; 0.50% DTAB, F12/DME + 10% FBS + ATP, 120 min) was 8127 relative light units. For the same compound, the “Average Relative Light Units” value (LucPpe2m146; 0.50% DTAB, F12/DME + 10% FBS + ATP, 180 min) was 6538 relative light units, the “Average Relative Light Units” value (LucPpe2m146; 0.50% DTAB, F12/DME + 10% FBS + ATP, 325 min) was 3793 relative light units and the “Average Relative Light Units” value (LucPpe2m146; 0.50% DTAB, F12/DME + 10% HS + ATP, 0 min) was 88405 relative light units. The “Average Relative Light Units” value (LucPpe2m146; 0.50% DTAB, F12/DME + 10% HS + ATP, 10 min) was 82645 relative light units, the “Average Relative Light Units” value (LucPpe2m146; 0.50% DTAB, F12/DME + 10% HS + ATP, 30 min) was 70746 relative light units and the “Average Relative Light Units” value (LucPpe2m146; 0.50% DTAB, F12/DME + 10% HS + ATP, 65 min) was 58749 relative light units. For the same compound, the “Average Relative Light Units” value (LucPpe2m146; 0.50% DTAB, F12/DME + 10% HS + ATP, 120 min) was 44677 relative light units, the “Average Relative Light Units” value (LucPpe2m146; 0.50% DTAB, F12/DME + 10% HS + ATP, 180 min) was 33353 relative light units and the “Average Relative Light Units” value (LucPpe2m146; 0.50% DTAB, F12/DME + 10% HS + ATP, 325 min) was 17414 relative light units. For the same compound, the “Average Relative Light Units” value (LucPpe2m146; 0.50% DTAB, RPMI + 10% FBS + ATP, 0 min) was 44179 relative light units, the “Average Relative Light Units” value (LucPpe2m146; 0.50% DTAB, RPMI + 10% FBS + ATP, 10 min) was 43664 relative light units and the “Average Relative Light Units” value (LucPpe2m146; 0.50% DTAB, RPMI + 10% FBS + ATP, 30 min) was 35909 relative light units. The “Average Relative Light Units” value (LucPpe2m146; 0.50% DTAB, RPMI + 10% FBS + ATP, 65 min) was 26501 relative light units, the “Average Relative Light Units” value (LucPpe2m146; 0.50% DTAB, RPMI + 10% FBS + ATP, 120 min) was 16951 relative light units and the “Average Relative Light Units” value (LucPpe2m146; 0.50% DTAB, RPMI + 10% FBS + ATP, 180 min) was 10153 relative light units. The “Average Relative Light Units” value (LucPpe2m146; 0.50% DTAB, RPMI + 10% FBS + ATP, 325 min) was 3268 relative light units, the “Average Relative Light Units” value (LucPpe2m146; 0.55% DTAB, DMEM + 10% FBS + ATP, 0 min) was 52107 relative light units and the “Average Relative Light Units” value (LucPpe2m146; 0.55% DTAB, DMEM + 10% FBS + ATP, 10 min) was 59799 relative light units. For the same compound, the “Average Relative Light Units” value (LucPpe2m146; 0.55% DTAB, DMEM + 10% FBS + ATP, 30 min) was 51285 relative light units, the “Average Relative Light Units” value (LucPpe2m146; 0.55% DTAB, DMEM + 10% FBS + ATP, 65 min) was 42155 relative light units and the “Average Relative Light Units” value (LucPpe2m146; 0.55% DTAB, DMEM + 10% FBS + ATP, 120 min) was 32891 relative light units. The “Average Relative Light Units” value (LucPpe2m146; 0.55% DTAB, DMEM + 10% FBS + ATP, 180 min) was 24137 relative light units, the “Average Relative Light Units” value (LucPpe2m146; 0.55% DTAB, DMEM + 10% FBS + ATP, 325 min) was 12031 relative light units and the “Average Relative Light Units” value (LucPpe2m146; 0.55% DTAB, F12/DME + 10% FBS + ATP, 0 min) was 6847 relative light units. The “Average Relative Light Units” value (LucPpe2m146; 0.55% DTAB, F12/DME + 10% FBS + ATP, 10 min) was 6952 relative light units, the “Average Relative Light Units” value (LucPpe2m146; 0.55% DTAB, F12/DME + 10% FBS + ATP, 30 min) was 6013 relative light units and the “Average Relative Light Units” value (LucPpe2m146; 0.55% DTAB, F12/DME + 10% FBS + ATP, 65 min) was 5581 relative light units. The “Average Relative Light Units” value (LucPpe2m146; 0.55% DTAB, F12/DME + 10% FBS + ATP, 120 min) was 4891 relative light units, the “Average Relative Light Units” value (LucPpe2m146; 0.55% DTAB, F12/DME + 10% FBS + ATP, 180 min) was 4329 relative light units and the “Average Relative Light Units” value (LucPpe2m146; 0.55% DTAB, F12/DME + 10% FBS + ATP, 325 min) was 3207 relative light units. The “Average Relative Light Units” value (LucPpe2m146; 0.55% DTAB, F12/DME + 10% HS + ATP, 0 min) was 36615 relative light units, the “Average Relative Light Units” value (LucPpe2m146; 0.55% DTAB, F12/DME + 10% HS + ATP, 10 min) was 36669 relative light units and the “Average Relative Light Units” value (LucPpe2m146; 0.55% DTAB, F12/DME + 10% HS + ATP, 30 min) was 31348 relative light units. For the same compound, the “Average Relative Light Units” value (LucPpe2m146; 0.55% DTAB, F12/DME + 10% HS + ATP, 65 min) was 27979 relative light units, the “Average Relative Light Units” value (LucPpe2m146; 0.55% DTAB, F12/DME + 10% HS + ATP, 120 min) was 23778 relative light units and the “Average Relative Light Units” value (LucPpe2m146; 0.55% DTAB, F12/DME + 10% HS + ATP, 180 min) was 19955 relative light units. For the same compound, the “Average Relative Light Units” value (LucPpe2m146; 0.55% DTAB, F12/DME + 10% HS + ATP, 325 min) was 13539 relative light units, the “Average Relative Light Units” value (LucPpe2m146; 0.55% DTAB, RPMI + 10% FBS + ATP, 0 min) was 21388 relative light units and the “Average Relative Light Units” value (LucPpe2m146; 0.55% DTAB, RPMI + 10% FBS + ATP, 10 min) was 22863 relative light units. For the same compound, the “Average Relative Light Units” value (LucPpe2m146; 0.55% DTAB, RPMI + 10% FBS + ATP, 30 min) was 19631 relative light units, the “Average Relative Light Units” value (LucPpe2m146; 0.55% DTAB, RPMI + 10% FBS + ATP, 65 min) was 16848 relative light units and the “Average Relative Light Units” value (LucPpe2m146; 0.55% DTAB, RPMI + 10% FBS + ATP, 120 min) was 12968 relative light units. The “Average Relative Light Units” value (LucPpe2m146; 0.55% DTAB, RPMI + 10% FBS + ATP, 180 min) was 9661 relative light units and the “Average Relative Light Units” value (LucPpe2m146; 0.55% DTAB, RPMI + 10% FBS + ATP, 325 min) was 5080 relative light units.

For `C[C@H](CCC(=O)[O-])[C@H]1CC[C@H]2[C@@H]3CC[C@@H]4C[C@H](O)CC[C@]4(C)[C@H]3C[C@H](O)[C@]12C.[Na+]` [Deoxycholate, sodium deoxycholate], the “precipitation in the samples” value ([1]; 0.1% deoxycholate) was “slight precipitation” and the “precipitation in the samples” value ([1]; 0.5% deoxycholate) was “substantial precipitation”.
